Source: paper PMC9608490, “Design, Synthesis, Crystal Structure, In Vitro and In Silico Evaluation of New N′-Benzylidene-4-tert-butylbenzohydrazide Derivatives as Potent Urease Inhibitors” (Molecules, 2022)

Target: Jack bean urease (Canavalia ensiformis, UniProt P07374)
Assay: In vitro urease inhibition assay
Assay type: biochemical
Protocol: The measurement of urease inhibitory activity was carried out according to the literature method. The assay mixture containing 75 μL of Jack bean urease and 75 μL of tested compounds with various concentrations (dissolved in DMSO) was pre-incubated for 15 min on a 96-well assay plate. Acetohydroxamic acid was used as a reference. Then 75 μL of phosphate buffer at pH 6.8 containing phenol red (0.18 mmol·L^−1) and urea (400 mmol·L^−1) were added and incubated at room temperature. The reaction time required for enough ammonium carbonate to form to raise the pH phosphate buffer from 6.8 to 7.7 was measured by a microplate reader (560 nm), with the end-point being determined by the color change of the phenol-red indicator.

Chain of Jack bean urease (P07374 whole entry, looked up): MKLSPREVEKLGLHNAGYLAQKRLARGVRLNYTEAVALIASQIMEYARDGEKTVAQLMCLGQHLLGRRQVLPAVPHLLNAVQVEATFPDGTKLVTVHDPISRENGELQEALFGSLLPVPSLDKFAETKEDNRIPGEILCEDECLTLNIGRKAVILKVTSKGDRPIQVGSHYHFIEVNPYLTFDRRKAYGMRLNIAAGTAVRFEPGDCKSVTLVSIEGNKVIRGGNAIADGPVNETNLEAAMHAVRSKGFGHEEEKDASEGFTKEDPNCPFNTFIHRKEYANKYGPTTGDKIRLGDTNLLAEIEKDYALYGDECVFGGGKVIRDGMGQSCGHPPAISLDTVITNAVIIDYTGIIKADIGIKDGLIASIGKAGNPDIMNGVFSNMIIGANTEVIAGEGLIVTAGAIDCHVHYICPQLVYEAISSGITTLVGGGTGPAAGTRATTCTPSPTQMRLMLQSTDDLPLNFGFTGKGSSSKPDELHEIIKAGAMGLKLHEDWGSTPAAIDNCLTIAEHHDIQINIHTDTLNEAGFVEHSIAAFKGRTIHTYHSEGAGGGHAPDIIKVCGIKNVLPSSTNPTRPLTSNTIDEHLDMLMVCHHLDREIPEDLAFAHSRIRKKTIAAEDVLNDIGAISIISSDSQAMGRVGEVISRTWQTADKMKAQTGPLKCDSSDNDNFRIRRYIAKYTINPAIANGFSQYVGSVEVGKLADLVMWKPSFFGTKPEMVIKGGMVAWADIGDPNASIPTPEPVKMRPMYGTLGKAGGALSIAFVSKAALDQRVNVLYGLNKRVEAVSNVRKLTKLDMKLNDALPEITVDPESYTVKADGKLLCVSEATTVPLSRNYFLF

| Compound | IC50 |
| --- | --- |
| CC(C)(C)c1ccc(C(=O)NN=Cc2cc(C(C)(C)C)c(O)c(C(C)(C)C)c2)cc1 [Compound 16, 4-(Tert-butyl)-N′-(3,5-di-tert-butyl-4-hydroxybenzylidene)benzohydrazide] | 79 ± 7.53 µM |
| COc1ccc(Br)cc1C=NNC(=O)c1ccc(C(C)(C)C)cc1 [Compound 7, N′-(5-Bromo-2-methoxybenzylidene)-4-(t-But)benzohydrazide] | 64.5 ± 3.97 µM |
| CC(C)(C)c1ccc(C(=O)NN=Cc2ccc(Cl)cc2Cl)cc1 [Compound 15, 4-(Tert-butyl)-N′-(2,4-dichlorobenzylidene)benzohydrazide] | 82.2 ± 7.43 µM |
| CC(C)(C)c1ccc(C(=O)N/N=C/c2cc(C(C)(C)C)cc(C(C)(C)C)c2O)cc1 [Compound 26, 4-(t-But)-N′-(3,5-Di-tert-butyl-2-hydroxybenzylidene)benzohydrazide] | 49.5 ± 12.7 µM |
| COc1ccc(/C=N/NC(=O)c2ccc(C(C)(C)C)cc2)cc1OC [Compound 25, 4-(t-But)-N′-(3,4-Dimethoxybenzylidene)benzohydrazide] | 13.4 ± 0.33 µM |
| CC(C)(C)c1ccc(C(=O)NN=Cc2cccc(O)c2)cc1 [Compound 12, 4-(Tert-butyl)-N′-(3-hydroxybenzylidene)benzohydrazide] | 39.6 ± 11.5 µM |
| CC(C)(C)c1ccc(C(=O)NN=Cc2cc([N+](=O)[O-])ccc2Cl)cc1 [Compound 10, 4-(Tert-butyl)-N′-(2-chloro-5-nitrobenzylidene)benzohydrazide] | 63.5 ± 3.97 µM |
| CC(C)(C)c1ccc(C(=O)NN=Cc2c3ccccc3cc3ccccc23)cc1 [Compound 6, N′-(Anthracen-9-ylmethylene)-4-(tert-butyl)benzohydrazide] | 13.3 ± 0.58 µM |
| COc1cccc(/C=N/NC(=O)c2ccc(C(C)(C)C)cc2)c1O [Compound 5, 4-(t-But)-N′-(2-Hydroxy-3-methoxybenzylidene)benzohydrazide] | 56.6 ± 3.18 µM |
| CN(C)c1ccc(C=NNC(=O)c2ccc(C(C)(C)C)cc2)cc1 [Compound 14, 4-(Tert-butyl)-N′-(4-(dimethylamino)benzylidene)benzohydrazide] | 81.2 ± 7.4 µM |
| CC(C)(C)c1ccc(C(=O)NN=Cc2ccc([N+](=O)[O-])cc2)cc1 [Compound 18, N′-(4-Nitrobenzylidene)-4-tert-butylbenzohydrazide] | 66.1 ± 1.79 µM |
| COc1cc(C=NNC(=O)c2ccc(C(C)(C)C)cc2)ccc1O [Compound 23] | 252 ± 6.82 µM |
| COc1cccc(OC)c1C=NNC(=O)c1ccc(C(C)(C)C)cc1 [Compound 19, 4-(Tert-butyl)-N′-(2,6-dimethoxybenzylidene)benzohydrazide] | 67.5 ± 4.16 µM |
| COc1cc(C=NNC(=O)c2ccc(C(C)(C)C)cc2)ccc1F [Compound 4, 4-(Tert-butyl)-N′-(4-fluoro-3-methoxybenzylidene)benzohydrazide] | 88.8 ± 7.71 µM |
| CC(C)(C)c1ccc(C(=O)N/N=C/c2ccccc2O)cc1 [Compound 24, 4-(t-But)-N′-(2-Hydroxybenzylidene)benzohydrazide] | 37.5 ± 12.5 µM |
| CC(C)(C)c1ccc(C(=O)NN=Cc2cc(Cl)cc(Cl)c2O)cc1 [Compound 17, N′-(3,5-Dichloro-2-hydroxybenzylidene)-4-tert-butylbenzohydrazide] | 27.5 ± 1.65 µM |
| CC(C)(C)c1ccc(C(=O)N/N=C/c2ccc(Cl)c(O)c2Cl)cc1 [Compound 22] | 38.6 ± 11.5 µM |
| CC(C)(C)c1ccc(C(=O)N/N=C/c2ccc(O)cc2)cc1 [Compound 20, 4-(t-But)-N′-(4-Hydroxybenzylidene)benzohydrazide] | 51.4 ± 11.5 µM |
| CCOc1ccc(C=NNC(=O)c2ccc(C(C)(C)C)cc2)c(OC)c1 [Compound 11, 4-(Tert-butyl)-N′-(4-ethoxy-2-methoxybenzylidene)benzohydrazide] | 63.5 ± 2.97 µM |
| COc1cc(OC)c(C=NNC(=O)c2ccc(C(C)(C)C)cc2)c(OC)c1 [Compound 21, N′-(2,4,6-Trimethoxybenzylidene)-4-tert-butylbenzohydrazide] | 71.3 ± 2.47 µM |
| COc1ccc(C=NNC(=O)c2ccc(C(C)(C)C)cc2)c(OC)c1OC [Compound 9, N′-(2,3,4-Trimethoxybenzylidene)-4-tert-butylbenzohydrazide] | 63.5 ± 3.97 µM |
| COc1cc(C=NNC(=O)c2ccc(C(C)(C)C)cc2)cc(OC)c1OC [Compound 13, 4-(Tert-butyl)-N′-(3,4,5-trimethoxybenzylidene)benzohydrazide] | 80.9 ± 7.43 µM |
| CC(C)(C)c1ccc(C(=O)NN=Cc2ccc(O)c(O)c2)cc1 [Compound 8, N′-(3,4-Dihydroxybenzylidene)-4-tert-butylbenzohydrazide] | 80 ± 7.43 µM |
